{"source": "ChEMBL document CHEMBL5046227", "about": "“Design, synthesis and bioactivity evaluation of novel evodiamine derivatives with excellent potency against gastric cancer” (Eur J Med Chem, 2022)", "key": {"SGC-7901 [1]": {"test_system": "SGC-7901", "assay": "Induction of apoptosis in human SGC-7901 cells assessed as viable cells at 0.3 uM after 24 hrs by Annexin V-FITC/PI staining based flow cytometry method (reference value: 99.95%)", "assay_type": "functional", "details": "read-out: Activity"}, "MGC-803 [2]": {"test_system": "MGC-803", "assay": "Antiproliferative activity against human MGC-803 cells assessed as reduction in cell viability at 18 uM measured after 24 hrs by MTT assay", "assay_type": "functional"}, "MGC-803 [3]": {"test_system": "MGC-803", "assay": "Induction of apoptosis in human MGC-803 cells assessed as necrotic cells at 0.3 uM after 24 hrs by Annexin V-FITC/PI staining based flow cytometry method (reference value: 0.05%)", "assay_type": "functional"}, "SGC-7901 [4]": {"test_system": "SGC-7901", "assay": "Induction of apoptosis in human SGC-7901 cells assessed as viable cells at 0.9 uM after 24 hrs by Annexin V-FITC/PI staining based flow cytometry method (reference value: 99.95%)", "assay_type": "functional", "details": "read-out: Activity"}, "SGC-7901 [5]": {"test_system": "SGC-7901", "assay": "Induction of apoptosis in human SGC-7901 cells assessed as late apoptic cells at 0.3 uM after 24 hrs by Annexin V-FITC/PI staining based flow cytometry method (reference value: 0.03%)", "assay_type": "functional"}, "MGC-803 [6]": {"test_system": "MGC-803", "assay": "Induction of apoptosis in human MGC-803 cells assessed as early apoptic cells at 0.3 uM after 24 hrs by Annexin V-FITC/PI staining based flow cytometry method (reference value: 0%)", "assay_type": "functional"}, "MGC-803 [7]": {"test_system": "MGC-803", "assay": "Antiinvasive activity against human MGC-803 cells assessed as reduction in cell invasion at 0.03 to 0.3 uM incubated for 24 hrs by matrigel-coated transwell assay", "assay_type": "functional, cell-based", "details": "dose 0.03-0.3 µM"}, "MGC-803 [8]": {"test_system": "MGC-803", "assay": "Induction of apoptosis in human MGC-803 cells assessed as late apoptic cells at 0.1 uM after 24 hrs by Annexin V-FITC/PI staining based flow cytometry method (reference value: 0.05%)", "assay_type": "functional"}, "SGC-7901 [9]": {"test_system": "SGC-7901", "assay": "Induction of apoptosis in human SGC-7901 cells assessed as necrotic cells at 0.3 uM after 24 hrs by Annexin V-FITC/PI staining based flow cytometry method (reference value: 0.01%)", "assay_type": "functional"}, "SGC-7901 [10]": {"test_system": "SGC-7901", "assay": "Induction of apoptosis in human SGC-7901 cells assessed as viable cells at 0.1 uM after 24 hrs by Annexin V-FITC/PI staining based flow cytometry method (reference value: 99.95%)", "assay_type": "functional", "details": "read-out: Activity"}, "MGC-803 [11]": {"test_system": "MGC-803", "assay": "Induction of apoptosis in human MGC-803 cells assessed as viable cells at 0.9 uM after 24 hrs by Annexin V-FITC/PI staining based flow cytometry method (reference value: 99.9%)", "assay_type": "functional", "details": "read-out: Activity"}, "SGC-7901 [12]": {"test_system": "SGC-7901", "assay": "Induction of apoptosis in human SGC-7901 cells assessed as chromatin condensation incubated for 24 hrs by Giemsa staining method", "assay_type": "functional, cell-based"}, "[13]": {"assay": "Toxicity in BALB/c nude mouse xenografted with human MGC-803 cells assessed as change in body weight at 50 mg/kg, ip for 16 days", "assay_type": "organism-based", "details": "in vivo, 384 h, time 16 day"}, "[14]": {"assay": "Acute toxicity in BALB/c nude mouse xenografted with human MGC-803 cells assessed as effect on WBC level at 50 mg/kg, ip for 16 days (reference value: 78.58 +/- 2.02 x10^9/L)", "assay_type": "organism-based", "details": "in vivo, 384 h, time 16 day"}, "MGC-803 [15]": {"test_system": "MGC-803", "assay": "Induction of apoptosis in human MGC-803 cells assessed as formation of apoptotic bodies measured after 24 hrs by Hoechst 33342 staining based fluorescence microscopic analysis", "assay_type": "functional, cell-based"}, "MGC-803 [16]": {"test_system": "MGC-803", "assay": "Antitumor activity against human MGC-803 cells xenografted in BALB/c nude mouse assessed as tumor inhibition rate at 50 mg/kg, ip for 16 days", "assay_type": "functional", "details": "MGC-803, ip, 384 h, time 16 day, read-out: TGI"}, "SGC-7901 [17]": {"test_system": "SGC-7901", "assay": "Induction of apoptosis in human SGC-7901 cells assessed as late apoptic cells at 0.9 uM after 24 hrs by Annexin V-FITC/PI staining based flow cytometry method (reference value: 0.03%)", "assay_type": "functional"}, "MGC-803 [18]": {"test_system": "MGC-803", "assay": "Induction of apoptosis in human MGC-803 cells assessed as late apoptic cells at 0.3 uM after 24 hrs by Annexin V-FITC/PI staining based flow cytometry method (reference value: 0.05%)", "assay_type": "functional"}, "Heart": {"test_system": "Heart", "assay": "Acute toxicity in Kunming mouse assessed as effect on heart at 1000 mg/kg, ip measured for 14 days by H and E staining based histological analysis", "assay_type": "organism-based", "details": "in vivo, 336 h, time 14 day"}, "[19]": {"assay": "Acute toxicity in BALB/c nude mouse xenografted with human MGC-803 cells assessed as effect on RBC level at 50 mg/kg, ip for 16 days (reference value: 12.05 +/- 1 x10^12/L)", "assay_type": "organism-based, Erythrocyte", "details": "in vivo, 384 h, time 16 day"}, "SGC-7901 [20]": {"test_system": "SGC-7901", "assay": "Antimigratory activity against human SGC-7901 cells assessed as inhibition on cell migration at 0.1 to 0.9 uM measured after 24 hrs by scratch wound-healing assay", "assay_type": "functional, cell-based", "details": "dose 0.1-0.9 µM"}, "SGC-7901 [21]": {"test_system": "SGC-7901", "assay": "Induction of cell cycle arrest in human SGC-7901 cells assessed as accumulation at G2/M phase at 0.1 to 0.9 uM after 24 hrs by propidium iodide staining based flow cytometry", "assay_type": "functional", "details": "dose 0.1-0.9 µM"}, "MGC-803 [22]": {"test_system": "MGC-803", "assay": "Induction of apoptosis in human MGC-803 cells assessed as necrotic cells at 0.1 uM after 24 hrs by Annexin V-FITC/PI staining based flow cytometry method (reference value: 0.05%)", "assay_type": "functional"}, "MGC-803 [23]": {"test_system": "MGC-803", "assay": "Induction of apoptosis in human MGC-803 cells assessed as viable cells at 0.3 uM after 24 hrs by Annexin V-FITC/PI staining based flow cytometry method (reference value: 99.9%)", "assay_type": "functional", "details": "read-out: Activity"}, "[24]": {"assay": "Acute toxicity in Kunming mouse assessed as death at 1000 mg/kg, ip measured for 14 days", "assay_type": "organism-based", "details": "in vivo, 336 h, time 14 day"}, "GES1": {"test_system": "GES1", "assay": "Antiproliferative activity against human GES1 cells assessed as reduction in cell viability measured after 72 hrs by MTT assay", "assay_type": "functional, cell-based", "details": "GES1, 72 h"}, "SGC-7901 [25]": {"test_system": "SGC-7901", "assay": "Induction of apoptosis in human SGC-7901 cells assessed as early apoptic cells at 0.1 uM after 24 hrs by Annexin V-FITC/PI staining based flow cytometry method (reference value: 0.01%)", "assay_type": "functional"}, "[26]": {"assay": "Acute toxicity in BALB/c nude mouse xenografted with human MGC-803 cells assessed as effect on lymphocyte level at 50 mg/kg, ip for 16 days (reference value: 5.65 +/- 0.73 x10^9/L)", "assay_type": "organism-based", "details": "in vivo, 384 h, time 16 day"}, "SGC-7901 [27]": {"test_system": "SGC-7901", "assay": "Inhibition of colony formation in human SGC-7901 cells at 0.03 to 0.3 uM incubated for 14 days by crystal violet staining based assay", "assay_type": "functional, cell-based", "details": "dose 0.03-0.3 µM, time 14.0 day"}, "[28]": {"assay": "Acute toxicity in BALB/c nude mouse xenografted with human MGC-803 cells assessed as effect on HGB level at 50 mg/kg, ip for 16 days (reference value: 237.67 +/- 22.81 g/L)", "assay_type": "organism-based", "details": "in vivo, 384 h, time 16 day"}, "SGC-7901 [29]": {"test_system": "SGC-7901", "assay": "Antiproliferative activity against human SGC-7901 cells assessed as reduction in EdU positive cells at 0.03 to 0.3 uM measured after 24 hrs by EdU incorporation assay", "assay_type": "functional, cell-based", "details": "dose 0.03-0.3 µM"}, "MGC-803 [30]": {"test_system": "MGC-803", "assay": "Induction of apoptosis in human MGC-803 cells assessed as early apoptic cells at 0.9 uM after 24 hrs by Annexin V-FITC/PI staining based flow cytometry method (reference value: 0%)", "assay_type": "functional"}, "MGC-803 [31]": {"test_system": "MGC-803", "assay": "Antiproliferative activity against human MGC-803 cells assessed as reduction in cell viability measured after 72 hrs by MTT assay", "assay_type": "functional, cell-based", "details": "MGC-803, 72 h"}, "MGC-803 [32]": {"test_system": "MGC-803", "assay": "Induction of apoptosis in human MGC-803 cells assessed as chromatin condensation incubated for 24 hrs by Giemsa staining method", "assay_type": "functional, cell-based"}}, "note": "Calls of active or inactive are those of the source. No cut-off for these calls is given here.", "data": [{"smiles": "Cc1ccc2c(c1)C(=O)N1CCc3c([nH]c4ccc(C)cc34)C1N2c1cccc(F)c1", "note": "(centres undefined)", "values": [{"measurement": "viability at 0.3 µM", "setting": "SGC-7901 [1]", "result": 87.4, "unit": "%"}, {"measurement": "Activity", "setting": "MGC-803 [2]", "result": 80, "unit": "%"}, {"measurement": "Activity", "setting": "MGC-803 [3]", "result": 0, "unit": "%"}, {"measurement": "viability at 0.9 µM", "setting": "SGC-7901 [4]", "result": 76.8, "unit": "%"}, {"measurement": "Activity", "setting": "SGC-7901 [5]", "result": 8.46, "unit": "%"}, {"measurement": "Activity", "setting": "MGC-803 [6]", "result": 15.3, "unit": "%"}, {"measurement": "Activity", "setting": "MGC-803 [7]", "result": "Active"}, {"measurement": "Activity", "setting": "MGC-803 [8]", "result": 28.21, "unit": "%"}, {"measurement": "Activity", "setting": "SGC-7901 [9]", "result": 0.16, "unit": "%"}, {"measurement": "viability at 0.1 µM", "setting": "SGC-7901 [10]", "result": 93.4, "unit": "%"}, {"measurement": "viability at 0.9 µM", "setting": "MGC-803 [11]", "result": 11.7, "unit": "%"}, {"measurement": "Activity", "setting": "SGC-7901 [12]", "result": "Active"}, {"measurement": "Activity", "setting": "[13]", "result": "Non-Toxic"}, {"measurement": "Activity", "setting": "[14]", "result": "80.28 10^9/L"}, {"measurement": "Activity", "setting": "MGC-803 [15]", "result": "Active"}, {"measurement": "inhibition in vivo at 50 mg/kg", "setting": "MGC-803 [16]", "result": 70.1, "unit": "%"}, {"measurement": "Activity", "setting": "SGC-7901 [17]", "result": 15.57, "unit": "%"}, {"measurement": "Activity", "setting": "MGC-803 [18]", "result": 46.8, "unit": "%"}, {"measurement": "Activity", "setting": "Heart", "result": "Non-Toxic"}, {"measurement": "Activity", "setting": "[19]", "result": "10.86 10^12/L"}, {"measurement": "Activity", "setting": "SGC-7901 [20]", "result": "Active"}, {"measurement": "Activity", "setting": "SGC-7901 [21]", "result": 22.85, "unit": "%"}, {"measurement": "Activity", "setting": "MGC-803 [22]", "result": 0, "unit": "%"}, {"measurement": "viability at 0.3 µM", "setting": "MGC-803 [23]", "result": 37.9, "unit": "%"}, {"measurement": "Activity", "setting": "[24]", "result": "Non-Toxic"}, {"measurement": "IC50", "setting": "GES1", "result": "> 18000", "unit": "nM"}, {"measurement": "Activity", "setting": "SGC-7901 [25]", "result": 2.06, "unit": "%"}, {"measurement": "Activity", "setting": "[26]", "result": "5.45 10^9/L"}, {"measurement": "Activity", "setting": "SGC-7901 [27]", "result": "Active"}, {"measurement": "Activity", "setting": "[28]", "result": 207.5, "unit": "g/L"}, {"measurement": "Activity", "setting": "SGC-7901 [29]", "result": "Dose-Dependent Effect"}, {"measurement": "Activity", "setting": "MGC-803 [30]", "result": 32.51, "unit": "%"}, {"measurement": "IC50", "setting": "MGC-803 [31]", "result": 440, "unit": "nM"}, {"measurement": "Activity", "setting": "MGC-803 [32]", "result": "Active"}]}]}
